The text below walks through data of ChEMBL document CHEMBL4261622, “Monosaccharide inhibitors targeting carbohydrate esterase family 4 de-N-acetylases” (Bioorg Med Chem, 2018).

Active and inactive are the calls of the source. The rule behind the calls is not given here.

Test [1] has as its target T1, Poly-beta-1,6-N-acetyl-D-glucosamine N-deacetylase (Escherichia coli (strain K12), UniProt P75906).
T1 sequence (P75906 whole entry): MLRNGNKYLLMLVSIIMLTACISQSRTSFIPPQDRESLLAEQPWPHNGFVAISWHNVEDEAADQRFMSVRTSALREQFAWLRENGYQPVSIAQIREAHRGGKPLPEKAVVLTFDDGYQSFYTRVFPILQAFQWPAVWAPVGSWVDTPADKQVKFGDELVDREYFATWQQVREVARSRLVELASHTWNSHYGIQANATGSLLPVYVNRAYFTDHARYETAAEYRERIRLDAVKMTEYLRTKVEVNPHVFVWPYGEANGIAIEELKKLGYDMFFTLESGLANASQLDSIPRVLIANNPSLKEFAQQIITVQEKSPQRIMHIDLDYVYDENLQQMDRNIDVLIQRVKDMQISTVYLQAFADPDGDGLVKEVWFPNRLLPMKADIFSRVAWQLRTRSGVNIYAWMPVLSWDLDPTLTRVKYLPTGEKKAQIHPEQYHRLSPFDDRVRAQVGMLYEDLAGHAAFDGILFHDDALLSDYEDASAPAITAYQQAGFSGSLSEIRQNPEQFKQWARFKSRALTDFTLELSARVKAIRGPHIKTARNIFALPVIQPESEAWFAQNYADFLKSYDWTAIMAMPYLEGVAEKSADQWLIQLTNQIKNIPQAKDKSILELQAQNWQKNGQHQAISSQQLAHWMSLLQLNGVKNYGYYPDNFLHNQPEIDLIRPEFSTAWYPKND
Put plainly: Inhibition of Escherichia coli PgaB expressed in Escherichia coli BL21 (DE3) cells transformed with pET28 plasmid coding for PgaB42-655 using compound pre-incubated with 1Eq DTT and using acetoxymethyl-4-methylumbelliferone as substrate measured at 2 min intervals over 10 mins in presence of CoCl2 by fluorescence assay.

Test [2] has as its target T2, Peptidoglycan-N-acetylglucosamine deacetylase (Streptococcus pneumoniae (strain ATCC BAA-255 / R6)) (UniProt Q8DP63).
T2 sequence (whole entry): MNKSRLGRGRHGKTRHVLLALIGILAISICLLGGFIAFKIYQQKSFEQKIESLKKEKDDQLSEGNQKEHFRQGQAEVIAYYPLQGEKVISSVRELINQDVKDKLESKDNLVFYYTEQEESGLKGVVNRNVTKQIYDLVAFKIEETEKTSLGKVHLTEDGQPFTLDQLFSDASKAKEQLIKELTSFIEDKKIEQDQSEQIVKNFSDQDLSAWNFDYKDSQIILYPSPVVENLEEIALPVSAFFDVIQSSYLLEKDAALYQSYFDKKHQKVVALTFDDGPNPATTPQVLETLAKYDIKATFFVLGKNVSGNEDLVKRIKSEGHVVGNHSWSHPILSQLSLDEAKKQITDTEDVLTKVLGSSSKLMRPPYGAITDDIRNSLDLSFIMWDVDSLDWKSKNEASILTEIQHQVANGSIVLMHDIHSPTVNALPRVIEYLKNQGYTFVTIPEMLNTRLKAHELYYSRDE
Put plainly: Substrate activity at Streptococcus pneumoniae Pgda at 1 mM in presence of CoCl2 or ZnCl2 by fluorescamine assay deacetylase assay.

For test [3], the target named is T3, Poly-beta-1,6-N-acetyl-D-glucosamine N-deacetylase (Escherichia coli (strain K12)) (UniProt P75906).
T3 sequence (whole entry): T1 sequence (P75906 whole entry)
Put plainly: Substrate activity at Escherichia coli PgaB at 1 mM in presence of CoCl2 or ZnCl2 by fluorescamine assay deacetylase assay.

Test [4] concerns the target T4, Peptidoglycan-N-acetylglucosamine deacetylase (Streptococcus pneumoniae (strain ATCC BAA-255 / R6), UniProt Q8DP63).
T4 sequence (Q8DP63 whole entry): T2 sequence (whole entry)
Put plainly: Inhibition of Streptococcus pneumoniae Pgda expressed in Escherichia coli BL21 (DE3) cells transformed with pET28bSpPgdA232-431 plasmid using compound pre-incubated with 1Eq DTT and using acetoxymethyl-4-methylumbelliferone as substrate measured at 5 min intervals over 60 mins in presence of ZnCl2 by fluorescence assay.

Test [5] has as its target T1, Poly-beta-1,6-N-acetyl-D-glucosamine N-deacetylase. The experiment in a line: Inhibition of Escherichia coli PgaB expressed in Escherichia coli BL21 (DE3) cells transformed with pET28 plasmid coding for PgaB42-655 using compound pre-incubated with 1Eq DTT and using acetoxymethyl-4-methylumbelliferone as substrate measured at 2 min intervals over 10 mins in presence of ZnCl2 by fluorescence assay.

Test [6] addresses T4, Peptidoglycan-N-acetylglucosamine deacetylase. Put plainly: Inhibition of Streptococcus pneumoniae Pgda expressed in Escherichia coli BL21 (DE3) cells transformed with pET28bSpPgdA232-431 plasmid using compound pre-incubated with 1Eq DTT and using acetoxymethyl-4-methylumbelliferone as substrate measured at 5 min intervals over 60 mins in presence of CoCl2 by fluorescence assay.

Test [7] shares this target. The experiment in a line: Inhibition of Streptococcus pneumoniae Pgda expressed in Escherichia coli BL21 (DE3) cells transformed with pET28bSpPgdA232-431 plasmid using acetoxymethyl-4-methylumbelliferone as substrate measured at 5 min intervals over 60 mins in presence of CoCl2 by fluorescence assay.
Test [8] concerns the target T1, Poly-beta-1,6-N-acetyl-D-glucosamine N-deacetylase. Put plainly: Inhibition of Escherichia coli PgaB expressed in Escherichia coli BL21 (DE3) cells transformed with pET28 plasmid coding for PgaB42-655 using acetoxymethyl-4-methylumbelliferone as substrate measured at 2 min intervals over 10 mins in presence of CoCl2 by fluorescence assay.
For test [9], the target named is T3, Poly-beta-1,6-N-acetyl-D-glucosamine N-deacetylase (Escherichia coli (strain K12)). The experiment in a line: Substrate activity at Escherichia coli PgaB at 5 mM in presence of CoCl2 or ZnCl2 by fluorescamine assay deacetylase assay.
Test [10] addresses T2, Peptidoglycan-N-acetylglucosamine deacetylase (Streptococcus pneumoniae (strain ATCC BAA-255 / R6)). The experiment in a line: Substrate activity at Streptococcus pneumoniae Pgda at 5 mM in presence of CoCl2 or ZnCl2 by fluorescamine assay deacetylase assay.
For test [11] the target is unchanged. Put plainly: Inhibition of Streptococcus pneumoniae Pgda expressed in Escherichia coli BL21 (DE3) cells transformed with pET28bSpPgdA232-431 plasmid at 10 mM using acetoxymethyl-4-methylumbelliferone as substrate measured at 5 min intervals over 60 mins in presence of CoCl2 by fluorescence assay.
For test [12], the target named is T3, Poly-beta-1,6-N-acetyl-D-glucosamine N-deacetylase (Escherichia coli (strain K12)). Put plainly: Inhibition of Escherichia coli PgaB expressed in Escherichia coli BL21 (DE3) cells transformed with pET28 plasmid coding for PgaB42-655 at 10 mM using acetoxymethyl-4-methylumbelliferone as substrate measured at 2 min intervals over 10 mins in presence of CoCl2 by fluorescence assay.

The target of test [13] is T2, Peptidoglycan-N-acetylglucosamine deacetylase (Streptococcus pneumoniae (strain ATCC BAA-255 / R6)). Put plainly: Inhibition of Streptococcus pneumoniae Pgda expressed in Escherichia coli BL21 (DE3) cells transformed with pET28bSpPgdA232-431 plasmid at 200 to 1200 uM using acetoxymethyl-4-methylumbelliferone as substrate measured at 5 min intervals over 60 mins in presence of 3 uM ZnCl2 by fluorescence assay.

Test [14] has the same target. The experiment in a line: Inhibition of Streptococcus pneumoniae Pgda expressed in Escherichia coli BL21 (DE3) cells transformed with pET28bSpPgdA232-431 plasmid at 200 to 1200 uM using acetoxymethyl-4-methylumbelliferone as substrate measured at 5 min intervals over 60 mins in presence of 6 uM ZnCl2 by fluorescence assay.
Test [15] has the same target. Put plainly: Inhibition of Streptococcus pneumoniae Pgda expressed in Escherichia coli BL21 (DE3) cells transformed with pET28bSpPgdA232-431 plasmid at 200 to 1200 uM using acetoxymethyl-4-methylumbelliferone as substrate measured at 5 min intervals over 60 mins in presence of 200 uM ZnCl2 by fluorescence assay.
Test [16] deals with T4, Peptidoglycan-N-acetylglucosamine deacetylase. Put plainly: Partial mixed inhibition of Streptococcus pneumoniae apo-Pgda using N,N',N\"-triacetyl chitotriose as substrate in presence of ZnCl2 by fluorescamine assay deacetylase assay based Dixon plot analysis.
The target of test [17] is T2, Peptidoglycan-N-acetylglucosamine deacetylase (Streptococcus pneumoniae (strain ATCC BAA-255 / R6)). Put plainly: Inhibition of Streptococcus pneumoniae Pgda expressed in Escherichia coli BL21 (DE3) cells transformed with pET28bSpPgdA232-431 plasmid at 5 mM using acetoxymethyl-4-methylumbelliferone as substrate measured at 5 min intervals over 60 mins in presence of CoCl2 by fluorescence assay.

By IC50 is commonly meant the midpoint of a concentration-inhibition curve. Usually Ki stands for the dissociation constant of the complex between target and ligand, obtained from inhibition or displacement.

Regarding `CS(=O)(=O)N[C@H]1[C@H](OCc2ccccc2)O[C@H](CO)[C@@H](O)[C@@H]1S`, the IC50 in [1], in test [4], in test [5] and in test [6] was over 1 mM throughout. Also, the result in test [2] and in test [3] was inactive.
As for `COP(=O)(O)C[C@H]1[C@H](OCc2ccccc2)O[C@H](CO)[C@@H](O)[C@@H]1O`, the IC50 in [7] is 4.9 mM; in test [8], over 10 mM.
With `CC(=O)N[C@H]1[C@H](OCc2ccccc2)O[C@H](CO)[C@@H](O)[C@@H]1N`, the result in test [9] and in [10] was inactive. In addition, the IC50 in test [7] and in test [8] was over 10 mM in each case.
In the case of `CC(=S)N[C@H]1[C@H](OCc2ccccc2)O[C@H](CO)[C@@H](O)[C@@H]1O`, the outcome in [9] and in [10] was inactive. Also, the IC50 in [7] and in [8] was over 10 mM in each case.
On to `O[C@H](CS)[C@H](O)CS`, for which the inhibition result in test [11] and in [12] was “inactive” each time.
For `CC(=O)N[C@H]1[C@H](OCc2ccccc2)O[C@H](CO)[C@@H](O)[C@@H]1O`, the outcome in test [9] and in test [10] was inactive. Moreover, the IC50 in [7] is 11 mM; in test [8], over 20 mM.
As to `CC(=O)N[C@H]1[C@H](OCc2ccccc2)O[C@H](CO)[C@@H](O)[C@@H]1S`, the IC50 in test [1] was over 8 mM; in test [4], 5 mM; in test [5], 1.1 mM; in [6], over 8 mM. The outcome in test [9] and in test [10] was inactive.
Regarding `CC(=S)N[C@H]1[C@H](OCc2ccccc2)O[C@H](CO)[C@@H](O)[C@@H]1S`, the IC50 in [1] is over 1 mM; in test [4], 0.011 mM; in test [5], 0.14 mM; in [6], over 1 mM. Also, the result in test [2] and in test [3] was inactive. Moreover, in test [13], the inhibition result was “inactive”. Moreover, the inhibition result in test [14] and in test [15] was “Active” throughout. Further, in [16], the Ki came out at 2900 nM.
Regarding `NS(=O)(=O)C[C@H]1[C@H](OCc2ccccc2)O[C@H](CO)[C@@H](O)[C@@H]1O`, the IC50 in test [7] and in [8] was over 10 mM in each case.
Consider `COP(=O)(O)C[C@H]1[C@H](OCc2ccccc2)O[C@H](CO)[C@@H](OCc2ccccc2)[C@@H]1O`, for which the inhibition entry in test [17] was “inactive”. The IC50 in test [7] and in test [8] was over 5 mM each time.
For `NS(=O)(=O)C[C@H]1[C@H](OCc2ccccc2)O[C@H](CO)[C@@H](OCc2ccccc2)[C@@H]1O`, the IC50 in test [7] and in test [8] was over 5 mM each time.
Turning to `COP(=O)(O)C[C@H]1[C@H](OCc2ccccc2)O[C@H](COCc2ccccc2)[C@@H](O)[C@@H]1O`, the inhibition result in [17] is “inactive”. Also, the IC50 in test [7] and in test [8] was over 5 mM throughout.
`CC(=O)N[C@H]1[C@H](OCc2ccccc2)O[C@H](CO)[C@@H](O)[C@@H]1N=[N+]=[N-]`: the outcome in test [2] and in test [3] was inactive. The IC50 in [7] and in test [8] was over 5 mM in each case.
